What all share (assay type): functional
In test [1] the test system is Pichia kudriavzevii. Put plainly: Antimicrobial activity against Candida krusei ATCC 6258 after 24 hrs by broth microdilution method. Conditions: ATCC 6258, 24 h.
Test [2] has as its system Candida albicans. Description: Antimicrobial activity against Candida albicans ATCC 90028 after 24 hrs by broth microdilution method. Conditions: ATCC 90028, 24 h. (In broth dilution the organism is exposed to a series of concentrations in liquid medium.)
Test [3] concerns Escherichia coli. Put plainly: Antimicrobial activity against Escherichia coli ATCC 25922 after 24 hrs by broth microdilution method. Conditions: ATCC 25922, 24 h.
For test [4], the system named is Pseudomonas aeruginosa. Description: Antimicrobial activity against Pseudomonas aeruginosa ATCC 27853 after 24 hrs by broth microdilution method. The conditions noted are these: ATCC 27853, 24 h.
Test [5] relates to Klebsiella pneumoniae. Description: Antimicrobial activity against Klebsiella pneumoniae ATCC 13883 after 24 hrs by broth microdilution method. Conditions: ATCC 13883, 24 h.
The subject of test [6] is Enterococcus faecalis. Description: Antimicrobial activity against Enterococcus faecalis ATCC 29212 after 24 hrs by broth microdilution method. The conditions noted are these: ATCC 29212, 24 h.
The test system of test [7] is Listeria monocytogenes. Put plainly: Antimicrobial activity against Listeria monocytogenes ATCC 19115 after 24 hrs by broth microdilution method. Conditions: ATCC 19115, 24 h.
The test system of test [8] is Escherichia coli. Description: Antimicrobial activity against Escherichia coli ATCC 35218 after 24 hrs by broth microdilution method. Conditions: ATCC 35218, 24 h.
Test [9] relates to Nakaseomyces glabratus. Put plainly: Antimicrobial activity against Candida glabrata ATCC 90030 after 24 hrs by broth microdilution method. The conditions noted are these: ATCC 90030, 24 h.
For test [10], the system named is Staphylococcus aureus. Put plainly: Antimicrobial activity against Staphylococcus aureus ATCC 25923 after 24 hrs by broth microdilution method. Conditions: ATCC 25923, 24 h.
Test [11] relates to Enterococcus faecalis. Put plainly: Antimicrobial activity against Enterococcus faecalis ATCC 51299 after 24 hrs by broth microdilution method. Conditions: ATCC 51299, 24 h.

Molecules are shown by their SMILES. Converted amounts (≈) assume the structure as drawn.

Usually MIC stands for the smallest concentration in the dilution series that meets the test's criterion for growth inhibition. High values mean a need for much substance, low ones inhibition by little substance.

`Cc1ccc(Nn2c(SCC(=O)c3cccc(F)c3)nc(C)c2C)cc1`: the MIC was 400 µg/mL (≈ 1080 µM) in test [1]; 800 µg/mL (≈ 2170 µM) in test [2]; 800 µg/mL (≈ 2170 µM) in test [3]; 400 µg/mL (≈ 1080 µM) in test [4]; 400 µg/mL (≈ 1080 µM) in test [5]; 200 µg/mL (≈ 541 µM) in [6]. The MIC in test [7] came out at 400 µg/mL (≈ 1080 µM); in [8], 800 µg/mL (≈ 2170 µM); in test [9], 800 µg/mL (≈ 2170 µM); in test [10], 800 µg/mL (≈ 2170 µM); in test [11] it was 400 µg/mL (≈ 1080 µM).
`Cc1ccc(Nn2c(SCC(=O)c3ccc(F)cc3)nc(C)c2C)cc1`: the MIC in test [1], in [2], in test [3], in [4], in [5] and in test [6] was 1600 µg/mL (≈ 4330 µM) in each case. Also, the MIC in [7], in [8], in test [9], in test [10] and in test [11] was 1600 µg/mL (≈ 4330 µM) throughout.
Turning to `Cc1ccc(Nn2c(SCC(=O)c3ccc(F)c(F)c3)nc(C)c2C)cc1`, the minimal inhibitory concentration (MIC) in test [1] turned out to be 100 µg/mL (≈ 258 µM); in [2] it was 200 µg/mL (≈ 516 µM); in [3], 800 µg/mL (≈ 2060 µM); in [4], 800 µg/mL (≈ 2060 µM); in test [5] it was 800 µg/mL (≈ 2060 µM); in test [6] it was 400 µg/mL (≈ 1030 µM). The MIC turned out to be 800 µg/mL (≈ 2060 µM) in test [7]; 800 µg/mL (≈ 2060 µM) in [8]; 400 µg/mL (≈ 1030 µM) in test [9]; 800 µg/mL (≈ 2060 µM) in [10]; 200 µg/mL (≈ 516 µM) in test [11].
In the case of `Cc1ccc(Nn2c(SCC(=O)c3cccc(Cl)c3)nc(C)c2C)cc1`, the MIC in test [1], in test [2], in [3], in test [4], in test [5] and in [6] was 800 µg/mL (≈ 2070 µM) throughout. The MIC in test [7], in test [8], in [9], in test [10] and in test [11] was 800 µg/mL (≈ 2070 µM) each time.
On to `Cc1ccc(Nn2c(SCC(=O)c3ccc(Cl)cc3)nc(C)c2C)cc1`, for which the MIC in test [1] was 200 µg/mL (≈ 518 µM); in test [2], 400 µg/mL (≈ 1040 µM); in [3], 400 µg/mL (≈ 1040 µM); in test [4], 800 µg/mL (≈ 2070 µM); in [5] it was 800 µg/mL (≈ 2070 µM); in test [6], 400 µg/mL (≈ 1040 µM). For the same molecule, the MIC in test [7] was 800 µg/mL (≈ 2070 µM); in test [8], 800 µg/mL (≈ 2070 µM); in test [9], 400 µg/mL (≈ 1040 µM); in [10] it was 800 µg/mL (≈ 2070 µM); in test [11], 400 µg/mL (≈ 1040 µM).
Turning to `Cc1ccc(Nn2c(SCC(=O)c3ccc(Cl)c(Cl)c3)nc(C)c2C)cc1`, the MIC came to 800 µg/mL (≈ 1900 µM) in test [1]; 800 µg/mL (≈ 1900 µM) in [2]; 400 µg/mL (≈ 952 µM) in test [3]; 800 µg/mL (≈ 1900 µM) in test [4]; 800 µg/mL (≈ 1900 µM) in [5]; 400 µg/mL (≈ 952 µM) in test [6]. Besides, the minimal inhibitory concentration (MIC) in test [7] worked out at 800 µg/mL (≈ 1900 µM); in test [8], 800 µg/mL (≈ 1900 µM); in [9], 800 µg/mL (≈ 1900 µM); in test [10] it was 800 µg/mL (≈ 1900 µM); in [11], 400 µg/mL (≈ 952 µM).
On to `COc1ccc(Nn2c(SCC(=O)c3ccccc3)nc(C)c2C)cc1`, for which the MIC in [1], in [2], in test [3], in test [4], in test [5] and in test [6] was 800 µg/mL (≈ 2180 µM) each time. The MIC is 800 µg/mL (≈ 2180 µM) in [7]; 800 µg/mL (≈ 2180 µM) in test [8]; 800 µg/mL (≈ 2180 µM) in test [9]; 800 µg/mL (≈ 2180 µM) in test [10]; 100 µg/mL (≈ 272 µM) in test [11].
As for `COc1cccc(C(=O)CSc2nc(C)c(C)n2Nc2ccccc2)c1`, the MIC was 400 µg/mL (≈ 1090 µM) in test [1]; 400 µg/mL (≈ 1090 µM) in [2]; 400 µg/mL (≈ 1090 µM) in [3]; 400 µg/mL (≈ 1090 µM) in [4]; 400 µg/mL (≈ 1090 µM) in test [5]; 800 µg/mL (≈ 2180 µM) in test [6]. The MIC came out at 800 µg/mL (≈ 2180 µM) in test [7]; 800 µg/mL (≈ 2180 µM) in [8]; 400 µg/mL (≈ 1090 µM) in [9]; 800 µg/mL (≈ 2180 µM) in [10]; 800 µg/mL (≈ 2180 µM) in test [11].
Take `COc1ccc(C(=O)CSc2nc(C)c(C)n2Nc2ccccc2)cc1OC`: the MIC in test [1] stood at 50 µg/mL (≈ 126 µM); in [2], 200 µg/mL (≈ 503 µM); in test [3], 800 µg/mL (≈ 2010 µM); in test [4], 400 µg/mL (≈ 1010 µM); in test [5], 400 µg/mL (≈ 1010 µM); in test [6], 400 µg/mL (≈ 1010 µM). Moreover, the MIC worked out at 400 µg/mL (≈ 1010 µM) in test [7]; 200 µg/mL (≈ 503 µM) in [8]; 800 µg/mL (≈ 2010 µM) in test [9]; 200 µg/mL (≈ 503 µM) in test [10]; 800 µg/mL (≈ 2010 µM) in test [11].
Turning to `Cc1nc(SCC(=O)c2cccc(F)c2)n(Nc2ccccc2)c1C`, the MIC in [1] amounted to 200 µg/mL (≈ 563 µM); in test [2], 400 µg/mL (≈ 1130 µM); in [3] it was 800 µg/mL (≈ 2250 µM); in test [4], 400 µg/mL (≈ 1130 µM); in test [5], 400 µg/mL (≈ 1130 µM); in test [6] it was 400 µg/mL (≈ 1130 µM). Moreover, the MIC in [7], in [8], in [9], in [10] and in test [11] was 400 µg/mL (≈ 1130 µM) each time.
On to `Cc1nc(SCC(=O)c2ccc(F)cc2)n(Nc2ccccc2)c1C`, for which the MIC came out at 200 µg/mL (≈ 563 µM) in [1]; 400 µg/mL (≈ 1130 µM) in test [2]; 800 µg/mL (≈ 2250 µM) in test [3]; 400 µg/mL (≈ 1130 µM) in test [4]; 400 µg/mL (≈ 1130 µM) in [5]; 400 µg/mL (≈ 1130 µM) in test [6]. Moreover, the MIC in [7] came out at 400 µg/mL (≈ 1130 µM); in test [8] it was 400 µg/mL (≈ 1130 µM); in [9], 400 µg/mL (≈ 1130 µM); in test [10], 800 µg/mL (≈ 2250 µM); in [11], 400 µg/mL (≈ 1130 µM).
Consider `Cc1nc(SCC(=O)c2cccc(Cl)c2)n(Nc2ccccc2)c1C`, for which the MIC in test [1] worked out at 200 µg/mL (≈ 538 µM); in test [2], 800 µg/mL (≈ 2150 µM); in test [3] it was 400 µg/mL (≈ 1080 µM); in [4], 400 µg/mL (≈ 1080 µM); in test [5], 800 µg/mL (≈ 2150 µM); in test [6] it was 400 µg/mL (≈ 1080 µM). Moreover, the minimal inhibitory concentration (MIC) in test [7], in test [8], in [9], in test [10] and in test [11] was 400 µg/mL (≈ 1080 µM) in each case.
`Cc1nc(SCC(=O)c2ccc(Cl)c(Cl)c2)n(Nc2ccccc2)c1C`: the minimal inhibitory concentration (MIC) stood at 200 µg/mL (≈ 492 µM) in test [1]; 400 µg/mL (≈ 984 µM) in [2]; 800 µg/mL (≈ 1970 µM) in [3]; 400 µg/mL (≈ 984 µM) in test [4]; 800 µg/mL (≈ 1970 µM) in [5]; 200 µg/mL (≈ 492 µM) in test [6]. For the same molecule, the MIC turned out to be 400 µg/mL (≈ 984 µM) in test [7]; 800 µg/mL (≈ 1970 µM) in test [8]; 200 µg/mL (≈ 492 µM) in [9]; 800 µg/mL (≈ 1970 µM) in test [10]; 800 µg/mL (≈ 1970 µM) in test [11].
As to `Cc1ccc(Nn2c(SCC(=O)c3ccccc3)nc(C)c2C)cc1`, the MIC was 400 µg/mL (≈ 1140 µM) in test [1]; 800 µg/mL (≈ 2280 µM) in test [2]; 800 µg/mL (≈ 2280 µM) in test [3]; 800 µg/mL (≈ 2280 µM) in test [4]; 400 µg/mL (≈ 1140 µM) in [5]; 400 µg/mL (≈ 1140 µM) in test [6]. Also, the MIC worked out at 800 µg/mL (≈ 2280 µM) in test [7]; 200 µg/mL (≈ 569 µM) in [8]; 400 µg/mL (≈ 1140 µM) in test [9]; 800 µg/mL (≈ 2280 µM) in test [10]; 800 µg/mL (≈ 2280 µM) in test [11].
Consider `COc1cccc(C(=O)CSc2nc(C)c(C)n2Nc2ccc(C)cc2)c1`, for which the MIC in [1] was 200 µg/mL (≈ 524 µM); in test [2] it was 400 µg/mL (≈ 1050 µM); in test [3], 800 µg/mL (≈ 2100 µM); in test [4], 800 µg/mL (≈ 2100 µM); in test [5], 800 µg/mL (≈ 2100 µM); in test [6], 800 µg/mL (≈ 2100 µM). Besides, the MIC in test [7] is 400 µg/mL (≈ 1050 µM); in [8], 200 µg/mL (≈ 524 µM); in test [9], 400 µg/mL (≈ 1050 µM); in test [10] it was 800 µg/mL (≈ 2100 µM); in [11], 400 µg/mL (≈ 1050 µM).

The values are drawn from ChEMBL document CHEMBL3091428, “Synthesis and initial biological evaluation of substituted 1-phenylamino-2-thio-4,5-dimethyl-1H-imidazole derivatives” (Bioorg Med Chem Lett, 2013).
